From patent US11684599B2, “Very-long-chain polyunsaturated fatty acids, elovanoid hydroxylated derivatives, and methods of use” (Board of Supervisors of Louisiana State University and …, priority 2017, dated 2023)

Tests used:
[1] = test system: cerebral-cortical mixed neuronal cells and hippocampal neurons; experiment: NMDA excitotoxicity of neurons in culture, cell viability; format: cell-based, rat; settings: for neuroprotection against NMDA excitotoxicity (Hoechst): 500 nM, DIV 12; for neuroprotection against NMDA excitotoxicity (Hoechst) / synergy with NPD1 in neuroprotection against NMDA excitotoxicity: NMDA 100 μM; for neuroprotection against NMDA excitotoxicity (Hoechst) / synergy with NPD1 in neuroprotection against NMDA excitotoxicity / NMDA-induced neuronal death: 12 h; for synergy with NPD1 in neuroprotection against NMDA excitotoxicity: ELV 200 nM with NPD1 100 nM; for NMDA-induced neuronal death: ELV (Na or Me) 200 nM or 500 nM added along with NMDA 25, 50 or 100 μM; for neuroprotection with MK801 and NPD1 added together: compared with ELV-N32-Na or ELV-N32-Me alone
Text: Primary cultures of cortical and hippocampal neurons were harvested from 18-day-old embryos (E18) taken from timed-pregnant, two-month-old Sprague-Dawley (SD) rats (Charles River Lab., Wilmington, Mass.). Briefly, timed-pregnant SD rats were euthanized and embryos were collected in sterile conditions. Embryonic brains were dissected out by forceps on ice and placed in a petri dish containing ice-cold Hank's Balanced Salt Solution (HBSS) (GIBCO). Meninges were removed under a dissecting microscope and cortical tissues were chopped into small pieces with micro-spring scissors. These tissues were transferred to 15 ml tubes containing trypsin-EDTA (0.025% in HBSS) and DNase I. The tubes were incubated in 37° C. chamber for 15 mins and were agitated every 5 mins. After stopping the trypsinization with 5 ml 10% FBS, these tissues were triturated 15 times with a fire polished Pasteur pipet. Cell clumps were left to settle for 2 mins and the supernatant was transferred to a 15 ml Eppendorf tube. The supernatant was filtered through a 70 μm pore-sized filter (Corning cell strainer) and centrifuged for 5 mins at 1000 rpm. The cells were then resuspended in Neurobasal medium (GIBCO) containing 2% B27 (GIBCO) and 2% N2 (GIBCO) supplements, along with 0.5 mM glutamine, 50 U/ml penicillin/streptomycin.
Cells were counted using a Neubauer hemocytometer. 1×10^6 cells were seeded on poly-D-lysine-coated 12 well cell culture dish (CORNING) and cultured in incubator (37° C., 5% CO2). Culture medium was first replaced after 24 h, then half of the medium was replaced with fresh medium every three days. As a result, approximately, 90% purity of neurons was obtained as determined by class-III-β tubulin, GFAP and Hoechst 33258 staining. Cells were maintained in culture for about 2 weeks until they were exposed to uncompensated oxidative stress, OGD, or NMDA excitotoxicity.
After 90 mins of OGD exposure, cells were returned to the original medium (Neurobasal medium (GIBCO) containing 2% B27 (GIBCO) and 2% N2 (GIBCO) supplements, along with 0.5 mM glutamine, 50 U/ml penicillin/streptomycin) and placed in a normoxic chamber (37° C., 5% CO2) for 2 h. Then the medium was changed with medium containing either ELV-N32 or ELV-N34 [500 nM] and maintained in a normoxic chamber (37° C., 5% CO2) for 12 h, after which cells were sampled and assayed for cell viability using different methods as previously described (25-28). Cerebral cortical mixed neuronal cells or hippocampal cells in culture were exposed to either NMDA or uncompensated oxidative stress (UOS) for 12 h by addition of either NMDA (25 μM, 50 μM, or 100 μM) concentration or by the addition of TNFα (10 ng/mL) and H2O2 (50 μM, 100 μM, or 200 μM). Cell viability and neuroprotection in the presence of ELV-N32, ELV-N34, 32:6, or 34:6 were assayed after 12 h.
Cells were washed with 1× Dulbecco's Phosphate Buffered Saline (DPBS) containing no calcium or magnesium (GIBCO) and fixed for 10 mins using ice-cold 4% paraformaldehyde (PFA) followed by 15 mins incubation in 100% methanol. Cells were washed with 1× Phosphate Buffered Saline (PBS) pH 7.4 (GIBCO) and incubated in PBS containing 20 μM Hoechst 33258 (Molecular Probes) for 20 mins. Cells were then washed 3 times with 1×PBS and stored in 1×PBS at 4° C. until they were imaged for microscopy.
One 4×4 tile mosaic was acquired from the center of each well using a Zeiss 510 Meta laser confocal microscope and LSM 510 Meta software. Images were imported into image analysis software ImageJ (National Institutes of Health, Bethesda, Md.) and batch processed using custom macros. An Otsu auto threshold was applied to each image of Hoechst-stained nuclei, and the area of each detected object was recorded. Objects with areas <10 μm^2 were excluded from analysis. To estimate percentage non-pyknotic nuclei, a size cutoff value was chosen above which objects were assumed to be non-pyknotic. […]

ARPE-19 cells = experiment: UOS-induced apoptosis in ARPE-19 cells (Hoechst-positive pyknotic cells); format: cell-based, human; settings: for UOS-induced apoptosis: 200 nM; for UOS-induced apoptotic cell death: concentration-dependent 50-500 nM, highest inhibition at 500 nM, lowest at 50 nM; for protection against UOS: free fatty acids, ARPE-19 cells
Description: FIGS. 6A and 6B depicts immunostaining of primary human RPE cells using specific markers ZO-1 (Zona occludens-1), RPE65, MITF (Micro-ophtalmia-associated Transcription Factor) and β-catenin, as well as light microscopy depicting primary human RPE cell morphology at different passages in culture. ARPE-19 cells were grown and maintained in T-75 mM flasks in DMEM F-12 medium containing 10% FBS and incubated at 37° C. with a constant supply of 5% CO2. Cells at 75-80% confluence (72 h growth in DMEM/F12+10% FBS) in 6-well plates were serum-starved for 8 h before exposure. […] The serum-starved cells were treated with TNF-α (Sigma-Aldrich, St. Louis, Mo.) (10 ng/ml) and H2O2 (600 μM) to induce oxidative stress and challenged with increasing concentrations (50-500 nM) of VLC-PUFA (C32:6n3 and C34:6n3) simultaneously with oxidative stress for 16 h (apoptosis) and 6 h (Western-blot) before detection of apoptosis and harvesting for protein analysis. In some experiments, DHA at a concentration of 100 nM and 15-LOX-1 inhibitor PD146176 at a concentration of 1 μM was added to treat the RPE cells under stress. Cell extracts were made and protein concentrations adjusted by Bio-Rad (Hercules, Calif.) protein reagent and used for Western blot analysis. To assess cell death, hRPE and ARPE-19 cells were fixed with methanol for 15 mins, washed with 1×PBS then loaded with 2 μM Hoechst dissolved in a Locke's solution (Promega) and incubated for another 15 mins before imaging. Cells were then viewed by using a Zeiss LSM 510 confocal microscope under UV fluorescence. Images were recorded and cell apoptosis was assessed by using an automated unbiased method.

## CC/C=C\C[C@H](O)\C=C/C=C/C=C/[C@H](O)C/C=C\C/C=C\CCCCCCCCCCCCC(=O)[O-].[Na+] [ELV-N32-Na, sodium (14Z,17Z,20R,21E,23E,25Z,27S,29Z)-20,27-dihydroxydotriaconta-14,17,21,23,25,29-hexaenoate]
[1]
  neuroprotection against NMDA excitotoxicity (Hoechst): neuroprotection elicited
  synergy with NPD1 in neuroprotection against NMDA excitotoxicity: showed synergy
  NMDA-induced neuronal death: compensated for
  neuroprotection with MK801 and NPD1 added together: improved the neuroprotection
ARPE-19 cells
  UOS-induced apoptosis: attenuation of apoptosis
  UOS-induced apoptotic cell death: attenuated

## CC/C=C\C[C@H](O)\C=C/C=C/C=C/[C@H](O)C/C=C\C/C=C\CCCCCCCCCCCCCCC(=O)OC [ELV-N34-Me, methyl (16Z,19Z,22R,23E,25E,27Z,29S,31Z)-22,29-dihydroxytetratriaconta-16,19,23,25,27,31-hexaenoate]
[1]
  neuroprotection against NMDA excitotoxicity (Hoechst): neuroprotection elicited
ARPE-19 cells
  UOS-induced apoptotic cell death: attenuated

## CC/C=C\C[C@H](O)\C=C/C=C/C=C/[C@H](O)C/C=C\C/C=C\CCCCCCCCCCCCC(=O)OC [ELV-N32-Me, methyl (14Z,17Z,20R,21E,23E,25Z,27S,29Z)-20,27-dihydroxydotriaconta-14,17,21,23,25,29-hexaenoate]
[1]
  synergy with NPD1 in neuroprotection against NMDA excitotoxicity: showed synergy
  NMDA-induced neuronal death: compensated for
  neuroprotection with MK801 and NPD1 added together: improved the neuroprotection
[1]; ELV-N32-Me plus NPD1 versus ELV-N32-Na plus NPD1
  relative potency of the combination with NPD1: more potent

## CC/C=C\C/C=C\C/C=C\C/C=C\C/C=C\C/C=C\CCCCCCCCCCCCC(=O)O [32:6n3, (14Z,17Z,20Z,23Z,26Z,29Z)-dotriaconta-14,17,20,23,26,29-hexaenoic acid]
[1]; precursor at 250 nM
  NMDA excitotoxicity: attenuate NMDA excitotoxicity
ARPE-19 cells
  protection against UOS: elicit protection against UOS

## CC/C=C\C[C@H](O)\C=C/C=C/C=C/[C@H](O)C/C=C\C/C=C\CCCCCCCCCCCCCCC(=O)[O-].[Na+] [ELV-N34-Na, sodium (16Z,19Z,22R,23E,25E,27Z,29S,31Z)-22,29-dihydroxytetratriaconta-16,19,23,25,27,31-hexaenoate]
ARPE-19 cells
  UOS-induced apoptosis: attenuation of apoptosis

## CC/C=C\C/C=C\C/C=C\C/C=C\C/C=C\C/C=C\CCCCCCCCCCCCCCC(=O)O [34:6n3, (16Z,19Z,22Z,25Z,28Z,31Z)-tetratriaconta-16,19,22,25,28,31-hexaenoic acid]
[1]; precursor at 500 nM
  NMDA receptor-mediated excitotoxicity: attenuates NMDA receptor-mediated excitotoxicity
ARPE-19 cells
  protection against UOS: elicit protection against UOS
